{
  "source": "paper PMC8904451",
  "about": "“Novel chalcone-derived pyrazoles as potential therapeutic agents for the treatment of non-small cell lung cancer” (Scientific Reports, 2022)",
  "assay_type_in_all_cases": "cell-based, human",
  "key": {"[1]": {"tested_on": "caspase-3/7 in H226 cells", "assay": "Caspase-3/7 activation by flow cytometry, H226", "conditions": "IC90", "method": "(§1) To explain the type of cell death that cancer cells undergo after treatment with PCH-1, the ability of the compound to activate caspases 3–7 was determined by flow cytometry. […] The most pronounced activation of caspase 3 occurred equally in A-549 and H226 cell lines after 48 h of treatment and was sevenfold greater than that in the vehicle.\n(§2) Cells were seeded onto tissue culture plates and allowed to attach for 24 h. Next, the cells were treated with PCH-1 or Etoposide at IC90 concentration for 6, 24, and 48 h. After incubation, the cells were harvested by trypsinization, rinsed twice with PBS, and stained with Annexin V Alexa Fluor™ 488 conjugate (Thermo Fisher, #A13201) for apoptosis assay and with CellEvent™ Caspase-3/7 Green Flow Cytometry Assay Kit (Thermo Fisher, #C10427) for caspase-3/7 activation according to the manufacturer’s protocols. The analysis was performed with Guava EasyCyte 8 cell sorter (Merck Millipore) and FlowJo software v10. Each experiment was repeated independently three times."}, "A-549 cells": {"tested_on": "A-549 cells", "assay": "Cell cycle distribution by flow cytometry, cells synchronized with double-thymidine block", "conditions": "synchronized A-549, IC90, prolonged exposure (up to 10 h)", "method": "Promising antiproliferative properties of PCH-1 led us to further investigate the effect of this compound on cell cycle distribution. Therefore, cell cycle progression was analyzed by quantifying DNA content using flow cytometry. […] To thoroughly analyze the course of the cycle, A-549 cells were synchronized with a double-thymidine block in the G1 phase and treated with IC90 concentration of PCH-1 for the indicated time. Slight alterations of the division cycle were visible after 2 h of incubation with the compound.\nCells were seeded onto tissue culture plates and allowed to attach for 24 h. Unsynchronized cells were treated with PCH-1 or Etoposide at IC90 concentration for 24 and 48 h, while synchronized cells were treated with PCH-1 or Etoposide at IC90 concentration for 2, 4, 6, 8, and 10 h. Synchronization of the cells was performed as described previously by Chen et al.[77]. Next, the cells were trypsinized, fixed in ice-cold 75% ethanol, and stored overnight at − 20 °C. After centrifugation, the cells were rinsed with PBS and stained with […] PI (Sigma-Aldrich) and […] RNaseA (Thermo Fisher) in PBS for 30 min at RT. The distribution of the cells in different phases of the cell cycle was determined by flow cytometry (Guava EasyCyte 8 cell sorter, Merck Millipore) and FlowJo software v10. Each experiment was repeated independently three times."}, "[2]": {"tested_on": "caspase-3/7 in A-549 cells", "assay": "Caspase-3/7 activation by flow cytometry, A-549", "conditions": "IC90", "method": "as §1, §2"}, "H226 cells": {"tested_on": "H226 cells", "assay": "MTT cell viability assay, H226", "method": "All the synthesized chalcone-derived pyrazoles were evaluated for their antiproliferative activity against three human non-small cell lung cancer cell lines: A-549, H226, and H460, and a nonmalignant human embryonic kidney cell line HEK293. Cisplatin and 5-fluorouracil (5-FU) were used as a reference. Cells were exposed to a range of PCH concentrations (0.5–100 µM) for 72 h and analyzed by 3-(4,5-dimethylthiazol-2-yl)-2,5-diphenyl-2H-tetrazolium bromide (MTT) assay. The results of the studies are expressed as the IC50 concentration that inhibits 50% growth of cells. […] Following treatment with PCH-1, the viability of all the tested cancer cell lines decreased in a concentration-dependent manner.\nThe cell viability assay was performed for A-549, H226, H460, and HEK293 cells after treatment with the test compounds by using the 3-(4,5-dimethylthiazol-2-yl)-2,5-diphenyltetrazolium bromide (MTT, Sigma-Aldrich) assay. Briefly, cells were seeded onto 96-well culture plates for attachment. After 24 h, triplicate wells were treated with DMSO (1%) and the agents. After 72 h of incubation at 37 °C in 5% CO2, the MTT solution (0.4 mg/ml) was added to each well. After 2–4 h of incubation, the medium was removed, and the formazan crystals were dissolved in 100 μl of DMSO. The absorption was measured at 450 nm with an ASYS UVM340 microplate reader (Biochrom Ltd.). The 50% inhibitory concentration (IC50) was defined as the concentration that reduced the absorbance of the DMSO-treated wells by 50% of the vehicle. The IC50 values were generated from GraphPad Prism 9 software by plotting the survival curve as a function of dose from 3 independent experiments."}},
  "data": [
    {"smiles": "COc1ccc(C2CC(c3cc4c(cc3OC)OCO4)=NN2C(C)=O)cc1", "note": "(stereo not drawn) [PCH-1, 1-[3-(6-methoxy-2H-1,3-benzodioxol-5-yl)-5-(4-methoxyphenyl)-4,5-dihydro-1H-pyrazol-1-yl]ethan-1-one]", "values": [
      {"measurement": "caspase-3/7 activation, increase compared to control, H226", "setting": "[1]; 6 h", "result": 2.9, "unit": "fold"},
      {"measurement": "activation of caspase 3 vs vehicle, H226", "setting": "[1]; 48 h", "result": "sevenfold"},
      {"measurement": "cells with activated caspase 3/7 vs control, H226", "setting": "[1]; later exposure", "result": "> 4.7", "unit": "times"},
      {"measurement": "increase in G2/M population as compared to control", "setting": "A-549 cells", "result": 50.12, "unit": "%"},
      {"measurement": "caspase-3/7 activation, increase compared to control, A-549", "setting": "[2]; 6 h", "result": 2.6, "unit": "fold"},
      {"measurement": "activation of caspase 3 vs vehicle, A-549", "setting": "[2]; 48 h", "result": "sevenfold"},
      {"measurement": "cells with activated caspase 3/7 vs control, A-549", "setting": "[2]; later exposure", "result": "greater than 5.8 times"},
      {"measurement": "superior activity to the reference compound Cisplatin, H226", "setting": "H226 cells; 72 h IC50 ratio", "result": "~3.7", "unit": "fold"},
      {"measurement": "IC50", "setting": "H226 cells; Homo sapiens, NCI-H226, 72 h, MTT, read-out: IC50 ± SD, growth inhibition, H226", "result": "4.69 ± 0.43", "unit": "µM"}
    ]}
  ]
}
